From patent publication US20010031749A1, “Novel C-2 S/O-and S/N formaldehyde Acetal Derivatives of Carbapenem-3-carboxylic acids and their use as antibiotics and beta-lactamase inhibitors” (priority 1998, published 2001) come the findings set out here.

The subject of one data set is E. cloacae EB 131. Nature of the data set: β-Lactamase inhibition activity against resistant bacteria (MIC of ceftazidime without and with Ia). Type of data set: cell-based. The following applies: Enterobacter cloacae, EB131, enzyme Type 1 Ceph'ase, read-out: MIC, CAZ alone.
A further data set concerns K. pneumoniae KL 140. The description is as above. Type of data set: cell-based. The following applies: Klebsiella pneumoniae, KL140, enzyme CAZ-ase, read-out: MIC, CAZ alone.
Another data set concerns K. pneumoniae KL 141. The data set is described as above. Type of data set: cell-based. The following applies: Klebsiella pneumoniae, KL141, enzyme CAZ-ase, read-out: MIC, CAZ alone.
The subject of a further data set is E. coli EC 227. The description is as above. Type of data set: cell-based. The following applies: Escherichia coli, EC227, enzyme CAZ-ase, read-out: MIC, CAZ alone.
For the next data set, the system named is E. coli EC 225. The data set is described as above. The format is cell-based. The following applies: Escherichia coli, EC225, enzyme TEM-5, read-out: MIC, CAZ alone.
A further data set concerns E. coli EC 228. The description is as above. The following applies: Escherichia coli, EC228, enzyme CAZ-ase, read-out: MIC, CAZ alone. Type of data set: cell-based.
A short description of data set [1]: Oral activity: plasma level and half-life in mice after oral application. The following applies: mouse, dose 25 mg per kg, potassium salt. The format is in vivo.
In data set [2] the target is T1, Penicillinase from E. coli TEM 1 (Escherichia coli, UniProt P62593).
T1 construct: bacterial β-lactamases isolated from Enterobacter cloacae and Escherichia coli; host or cells: Escherichia coli (enzyme isolated, cell free)
T1 sequence (P62593 24-286 limits assumed): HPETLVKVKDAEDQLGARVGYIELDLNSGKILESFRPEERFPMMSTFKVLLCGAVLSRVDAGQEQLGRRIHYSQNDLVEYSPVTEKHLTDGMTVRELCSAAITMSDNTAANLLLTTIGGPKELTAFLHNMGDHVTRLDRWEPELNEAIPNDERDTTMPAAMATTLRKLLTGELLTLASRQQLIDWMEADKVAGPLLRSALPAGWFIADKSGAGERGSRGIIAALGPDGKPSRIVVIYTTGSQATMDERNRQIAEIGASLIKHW
Nature of the data set: β-Lactamase inhibition against isolated (cell free) enzymes, nitrocefin method. Type of data set: biochemical. An excerpt: (§1) Moreover, all tested ceftazidime resistant Gram-negative pathogens became susceptible to a combination of ceftazidime and the compounds according to the invention. Thus, these compounds are also very potent β-lactamase inhibitors. The very high activity as β-lactamase inhibitors of the compounds I according to the invention was also observed with isolated bacterial enzymes in the nitrocefin test (R. Reimer, Methodicum Chimicum: Antibiotics, Vitamins and Hormons; F. Korte, M. Goto, eds., Thieme, Stuttgart, 1977, p.11, E. Wasielewski, Arzneimittel, Vol. 4; Chemotherapeutica, Part 1, Verlag Chemie, Weinheim 1972).
(§2) IC50 values were determined in a 1 cm UV cell at 37° C. after a 15 min preincubation period of enzyme and the inhibitor.

The target in data set [3] is T2, β-Lactamase from Enterobacter cloacae (Enterobacter cloacae, UniProt P05364).
T2 construct: bacterial β-lactamases isolated from Enterobacter cloacae and Escherichia coli; host or cells: Enterobacter cloacae (enzyme isolated, cell free)
T2 sequence (P05364 21-381): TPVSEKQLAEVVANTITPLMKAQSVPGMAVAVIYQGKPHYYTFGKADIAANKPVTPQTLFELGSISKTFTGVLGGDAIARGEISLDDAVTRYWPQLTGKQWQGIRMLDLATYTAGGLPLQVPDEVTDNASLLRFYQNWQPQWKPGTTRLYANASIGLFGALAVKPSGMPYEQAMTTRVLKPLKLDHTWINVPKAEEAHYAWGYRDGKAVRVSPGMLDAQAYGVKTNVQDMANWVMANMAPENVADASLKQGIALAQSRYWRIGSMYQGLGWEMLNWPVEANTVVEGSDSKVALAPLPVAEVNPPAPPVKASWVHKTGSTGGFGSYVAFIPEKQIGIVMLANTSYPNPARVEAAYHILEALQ
The data set is described as above. The format is biochemical. The following applies: 37° C., 15 min preincubation of enzyme and inhibitor.
From the text: as §1, §2

Data set [4] is described as follows: Stability in phosphate buffer (half-life of hydrolysis, UV method). Type of data set: physicochemical. The following applies: for half-life: physiological phosphate buffer pH 7.4 and 37° C., UV method.
Another data set concerns Staph. aureus 25768. Nature of the data set: In vitro antibacterial activity, plate test (inhibition diameter). The format is cell-based. The following applies: 10 μg, Difco Nutrient Agar, 18 hrs at 37° C. The protocol:
(§3) The tests were carried out in sterile polypropylene dishes (diameter 8.5 cm) containing 10 ml of Difco Nutrient Agar. Inhibition was recorded after 18 hrs at 37° C. (inoculum ca. […] cells).

Another data set relates to Escherichia coli TEM 1. The description is as above. The format is cell-based. The following applies: 10 μg, Difco Nutrient Agar, 18 hrs at 37° C. As for the experimental part: as §3
The test system of the next data set is Staph. aureus resistant. The data set is described as above. The format is cell-based. The following applies: 10 μg, Difco Nutrient Agar, 18 hrs at 37° C. As for the experimental part:
as §3

The subject of another data set is Staph. aureus Innsbruck. Described as above. The format is cell-based. The following applies: 10 μg, Difco Nutrient Agar, 18 hrs at 37° C. As for the experimental part:
as §3

The next data set deals with Staph. aureus DSM 1104. The data set is described as above. The format is cell-based. The following applies: 10 μg, Difco Nutrient Agar, 18 hrs at 37° C. The protocol: as §3
The subject of data set [5] is Enterobacter cloacae DSM 30054. Described as above. Type of data set: cell-based. The following applies: 10 μg, Difco Nutrient Agar, 18 hrs at 37° C. The protocol: as §3
For another data set, the system named is Enterococcus. The data set is described as above. Type of data set: cell-based. The following applies: 10 μg, Difco Nutrient Agar, 18 hrs at 37° C. As for the experimental part: as §3
Data set [6] has as its system Escherichia coli DSM 1103. The data set is described as above. The format is cell-based. The following applies: 10 μg, Difco Nutrient Agar, 18 hrs at 37° C. The protocol: as §3
Data set [7] has as its system Pseudomonas aer. resistant. The description is as above. The following applies: 10 μg, Difco Nutrient Agar, 18 hrs at 37° C. Type of data set: cell-based, Pseudomonas aeruginosa. As for the experimental part: as §3
In data set [8] the test system is Pseudomonas aer. DSM 1117. Described as above. Type of data set: cell-based, Pseudomonas aeruginosa. The following applies: 10 μg, Difco Nutrient Agar, 18 hrs at 37° C. The protocol:
as §3

The subject of the next data set is Sacharomyces cerevisiae. Nature of the data set: Cytotoxicity, agar diffusion method. The following applies: 1.0 mg, yeast and mold agar, 16 hrs at 30° C. Type of data set: cell-based. The protocol:
Sterile PP dishes of 8.5 cm diameter containing 10 ml of yeast and mold agar were used. Cytotoxicity was recorded after a 16 hrs incubation period at 30° C. (inoculum approx. 10^5 cells).
(A growth-free zone around the sample is the usual read-out of agar diffusion tests.)

For the molecule `CC(C)(O/N=C(\C(=O)N[C@@H]1C(=O)N2C(C(=O)[O-])=C(C[n+]3ccccc3)CS[C@H]12)c1csc(N)n1)C(=O)O` [CAZ, ceftazidime], the MIC (as a rule, the lowest concentration that inhibits growth of the organism) was more than 64 µg/mL in the data set on E. cloacae EB 131; more than 64 µg/mL in the data set with K. pneumoniae KL 140; more than 64 µg/mL in the data set on K. pneumoniae KL 141; more than 64 µg/mL in the data set with E. coli EC 227; 64 µg/mL with E. coli EC 225; 16 µg/mL in the data set on E. coli EC 228.
On to `COCSC1=C(C(=O)O)N2C(=O)[C@H]([C@@H](C)O)[C@H]2[C@H]1C` [Ia, Potassium (4R,5S,6S)-6-((1′R)-hydroxyethyl)-3-(methoxymethylthio)-4-methyl-7-oxo-1-azabicyclo[3.2.0]hept-2-ene-2-carboxylate], for which, in data set [1] (plasma), the concentration at 10 min came out at 5600 ng/mL. In addition, the half-life – broadly, the time in which the quantity being followed falls by half – in data set [1] (serum, 25 mg/kg, read-out: Approximative serum half-life) is 0.417 h; in [4] it was 50 h. For the same molecule, the IC50 (as a rule, the midpoint of a concentration-inhibition curve) in [2] worked out at 200 nM; in data set [3] it was 4 nM.
Regarding `CC(O)C1C(=O)N2C(C(=O)O)=C(SCOCCN)C(C)C12` (centres unmarked) [Ib], the inhibition diameter in the data set on Staph. aureus 25768 was determined as 28 mm; with Escherichia coli TEM 1, 33 mm; with Staph. aureus resistant it was 35 mm; in the data set on Staph. aureus Innsbruck, 9 mm; in the data set on Staph. aureus DSM 1104, 39 mm; in data set [5], 26 mm. In addition, the inhibition diameter in the data set with Enterococcus turned out to be 21 mm; in data set [6], 30 mm; in [7], 17 mm; in data set [8], 27 mm. The “inhibition diameter (cytotoxicity)” value in the data set with Sacharomyces cerevisiae is reported as 0 mm. Moreover, the IC50 in [2] was 550 nM; in data set [3] it was 8.5 nM. This molecule showed a half-life in data set [4] of 50 h.
For the molecule `CC(O)C1C(=O)N2C(C(=O)O)=C(SCOCCNC=N)C(C)C12` [Ic, (4R,5S,6S)-3-((2-(Formimidoylamino)ethoxv)methylthio)-((1′R)-hydroxyethyl)-4-methyl-7-oxo-1-azabicyclo[3.2.0]hept-2-ene-2-carboxylic acid], the inhibition diameter in the data set on Staph. aureus 25768 is listed as 26 mm; in the data set with Escherichia coli TEM 1, 33 mm; in the data set with Staph. aureus resistant it was 35 mm; with Staph. aureus Innsbruck it was 8 mm; with Staph. aureus DSM 1104, 39 mm; in data set [5] it was 25 mm. Besides, the inhibition diameter is recorded as 21 mm with Enterococcus, 30 mm in data set [6], 13 mm in data set [7] and 25 mm in data set [8]. This molecule showed a half-life in data set [4] of 35 h.
In turn, `CC(O)C1C(=O)N2C(C(=O)O)=C(SCOC(C)(C)CN)C(C)C12` [Id, (4R,5S,6S)-3-((2-amino-1,1-dimethylethoxy)methylthio)-6-((1′R)-hydroxyethyl)-4-methyl-7-oxo-1-azabicyclo[3.2.0]hept-2-ene-2-carboxylic acid] showed a half-life in [4] of 50 h.
On to `CC(=O)NCSC1=C(C(=O)O)N2C(=O)[C@H]([C@@H](C)O)[C@H]2[C@H]1C` [Ie, Potassium (4R,5S,6S)-3-(acetamidomethylthio)-((1′R)-hydroxyethyl)-4-methyl-7-oxo-1-azabicyclo[3.2.0]hept-2-ene-2-carboxylate], for which the inhibition diameter was 27 mm with Staph. aureus 25768; 34 mm in the data set on Escherichia coli TEM 1; 32 mm in the data set on Staph. aureus resistant; 36 mm in the data set with Staph. aureus DSM 1104; 27 mm in data set [5]; 18 mm with Enterococcus. Besides, the inhibition diameter in data set [6] was determined as 32 mm; in data set [8], 16 mm. Also, the “inhibition diameter (cytotoxicity)” value in the data set on Sacharomyces cerevisiae is recorded as 0 mm. Moreover, the IC50 in data set [2] was found to be 300 nM; in [3], 6 nM. The same molecule gave a half-life in data set [4] of 40 h.
With `CC(O)C1C(=O)N2C(C(=O)O)=C(SCNC(=O)CN)C(C)C12` [If, (4R,5S,6S)-3-((2-Aminoacetamido)methylthio-6-((1′R)-hydroxyethyl)-4-methyl-7-oxo-1-azabicyclo[3.2.0]hept-2-ene-2-carboxylic acid], the inhibition diameter with Staph. aureus 25768 is given as 25 mm; in the data set with Escherichia coli TEM 1, 33 mm; in the data set on Staph. aureus resistant, 30 mm; in the data set on Staph. aureus Innsbruck, 12 mm; with Staph. aureus DSM 1104 it was 33 mm; in [5], 23 mm. The inhibition diameter with Enterococcus was determined as 20 mm; in [6] it was 27 mm; in [7], 14 mm; in [8], 18 mm. Also, the “inhibition diameter (cytotoxicity)” value in the data set with Sacharomyces cerevisiae is 0 mm. This molecule also showed a half-life in data set [4] of 16 h.
Take `CCN1CCN(CSC2=C(C(=O)[O-])N3C(=O)[C@H]([C@@H](C)O)[C@H]3[C@H]2C)C(=O)C1=O.[K+]` [Ig, Potassium (4R,5S,6S)-3-((2,3-dioxo-4-ethyl-piperazinyl)methylthio)-6-((1′R)-hydroxyethyl)-4-methyl-7-oxo-1-azabicyclo[3.2.0]hept-2-ene-2-carboxylate]: the half-life of hydrolysis in data set [4] (buffer, pH 7.4) worked out at 42 h.
